Experimental data published in publication PMC8421406, “C9orf72-derived arginine-rich poly-dipeptides impede phase modifiers” (Nature Communications, 2021).
“Also recorded” adds a separate entry of the source. Where no end group is shown, it is not given here. HA = HA epitope tag

Assays:
[1] = test system: Kapβ2; test: Solution NMR (1H-13C methyl) of labelled Kapβ2; type: binding
Method: The Kapβ2 expression plasmid was transformed into BL21(DE3) cells. The protein samples with ^1H,^13C-labeled methyl groups in deuterium background were prepared as described in a previous study. The cells were grown in medium with ^15NH4Cl (2 gL^−1, CIL) and ^2H7-glucose (2 g L^−1, CIL) in 99.9% ^2H2O (Isotec). The precursors for methyl groups of Ile, Val, and Leu, α-ketobutyric acid (50 mg L^−1) and α-ketoisovaleric acid (80 mg L^−1), and [^13CH3] methionine (50 mg L^−1) were added to the culture 1 h before the addition of IPTG. Protein expression was induced by the addition of 0.5 mM IPTG at OD600 ~ 0.6, followed by ~16 h of incubation at 25 °C. […] Protein concentration was determined spectrophotometrically at 280 nm using a corresponding extinction coefficient.
The isotopically labeled Kapβ2 was prepared in the NMR buffer containing 20 mM ^2H-Tris pH 7.4, 150 mM NaCl, 2 mM MgCl2, 2 mM DTT, and 2% glycerol, concentrated to 20 μM. […] Perturbation of the side chain methyl resonances were each monitored using ^1H-^13C heteronuclear multiple quantum coherence. […] The perturbations of the resonances were evaluated based on chemical shift change or intensity change. […]
In order to investigate the interaction between Kapβ2 and PR poly-dipeptide by NMR, the NMR spectra of the isotopically labeled Kapβ2 in the absence and presence of the synthetic peptide of PR20:HA were measured. […]

[2] = test system: Kapβ2 / MBP:FUS-NLS complex; test: Competitive pull-down: release of MBP:FUS-NLS from GST:Kapβ2; type: binding; conditions: MBP:FUS-NLS (501–526) : GST:Kapβ2 1:1, PR20:HA competitor; repeated twice
From the text: Unbound proteins were washed three times with the buffer.

PR20: twenty repeats of proline:arginine with an HA epitope tag at the C terminus, synthesized by SCRUM, Inc. (PRPRPRPRPRPRPRPRPRPRPRPRPRPRPRPRPRPRPRPR-{HA})
Perturbation of Kapβ2 methyl resonances ([1]; 20 μM labelled Kapβ2, 20 °C, 20 mM Tris pH 7.4, 150 mM NaCl, 600/800 MHz): induced significant perturbations to several resonances of Kapβ2; also recorded: several resonances show significant perturbations induced only by PR20 | Binding site on Kapβ2 by NMR ([1]; comparison of perturbations by PR20, M9M and FUS-ΔNLS): partially occupy the NLS-binding site of Kapβ2 | Release of MBP:FUS-NLS from Kapβ2 [2]: release of MBP:FUS-NLS from Kapβ2
